Where a name gives a salt, the structure may show the parent alone.

Data set [1] relates to NK cells. The data set is described as follows: NK activation assay, CD25+CD69+ NK cells by flow cytometry. To be noted: for % inactivation relative to vehicle: human NK % CD25+CD69+ cells. In kind it is cell-based, human. As for the experimental part:
IC50 is a measurement of how much of a drug is needed to inhibit a biological process by half.
Peripheral blood mononuclear cells (PBMC) were isolated over a density gradient from six donor buffy coats and CD56+NK were separated using magnetic selection. Purity of sorted NIK cells was assessed by flow cytometry using CD56 as a marker of NK cells.
Following magnetic isolation, NK cells were seeded at 5×10^5 NK cells per well in a 48 well plate alongside NK activation beads (prepared as per manufacturer's protocol) at a 1:1 bead to cell ratio, IL-2 (final concentration 500 IU/ml) and either prodrug/epinephrine at 5 different doses (see section 3.6 below for further details), cortisol/dexamethasone (positive controls) or vehicle (media only). NK cells were cultured with the NK activation beads for two days at 37° C. in the presence of 5% CO2. After two days, supernatants were collected from each condition for future TR-FRET analysis (AQV-24-001_AM-1 only, see below) and the remaining cells from each condition were assessed for expression of surface markers CD25, CD69 and for cell viability using eBioscience™ Fixable Viability Dye. Samples were then treated with eBioscience Intracellular Fixation & Permeabilization Buffer Set to allow staining of intracellular granzyme B. Marker expression was determined by flow cytometry and appropriate “Fluorescence-Minus-One controls” controls were used. Flow cytometry data was analysed using FlowJo analysis software and data was graphed using Graph Pad Prism.
The study was performed in: 3 donors Each experimental condition was tested in: singlicate. For Flow cytometry, viability was measured and cells were phenotyped for NK cell activation (CD25, CD69, granzyme B). Raw and analysed data are provided.
Each experimental condition was tested in: singlicate. For Flow cytometry, viability was measured and cells were phenotyped for NK cell activation (CD25, CD69, granzyme B). Raw and analysed data are provided. Supernatants were harvested in triplicate per condition and stored until further analysis of IFNγ content by TR-FRET. Data was analysed and graphed. Raw and analysed data are provided. […]
In general terms: In flow cytometry, cells or beads pass a laser one at a time.

Data set [2] can be described thus: Ex vivo permeation and flux of epinephrine prodrug topical gels through porcine ear tissue. The class given is in vitro ADME. Particulars: topical gel containing 0.5% or 5.0% (w/w) dipivefrin HCl; 400 μm tissue. On the procedure:
Both in vitro and ex vivo permeation was measured for the following formulation. […]
Exemplary formulations were evaluated including Formulations 1-3, with API loading from 2.5-10% w/w.
The claimed topical compositions were tested for permeation using both porcine ear and buccal tissue.
The tested tissues were Porcine Ear vs. Buccal Tissue through 24 hours.

The subject of data set [3] is TNFα, IL-10. To be noted: cited from earlier work.
Details of data set [4]: species or system Sinclair Nanopigs. To be noted: in vivo. On the procedure:
A study was conducted to evaluate the systemic pharmacokinetic characteristics of Dipivefrin Topical Gel when administered once by topical application to intact, abraded, and wounded skin of Sinclair Nanopigs™. The study design was as follows. Animals were food fasted for at least 8 hours. Animals were monitored until fully recovered. Anesthesia procedures were documented and retained in the study data. The dose formulations were administered to appropriate animals by topical application on the dorsal surface (Dose Site #1) once on Day 1. The dose site was and/or shaved and marked at least one day prior to Day 1. At least the four corners of the dose sites will be marked with indelible ink based on the appropriate dose area. At least the four corners of the tape stripping area were marked with indelible ink for Group 2 and 3 animals. The site for Group 2 and 3 animals was gently abraded via tape stripping (conducted 50 times). All animals will have a uniform topical application using a gloved hand and/or spatula to rub the entire dose amount throughout the total dose area (for 1 minute). Topical application to the dose area for Group 4 animals will include application of the dose amount over the created wounds. If an animal is observed to have test material remaining following the application time, the observation will be documented. Dose formulations will be allowed to equilibrate at ambient temperature for at least 15 minutes prior to and continuously throughout dose administration Prior to dermal (topical) application on Day 1, the dose site for Group 1 to 3 animals were wiped clean with water-moistened gauze or paper towels then wiped dry with dry gauze or paper towels. Following washing and drying, […]. On Day 1, Group 4 animals: The animal backs were prepared for wound creation by performing a surgical scrub. Two (2) wounds were created on the dorsal surface of each Group 4 animal within a 7×7 cm area using an 8 mm punch biopsy. Steps were taken to ensure the area designated for wound creation is within the total dose area (8×8 cm). […]

The subject of data set [5] is IL-1b, IL-10. Particulars: cited from earlier work.
Data set [6] is described as follows: Ex vivo permeation of ondansetron formulation through dermatomed porcine ear (tissue thickness / tissue type). The class given is in vitro ADME. As for the experimental part:
Referring to FIG. 2A (through 6 hour timepoint) and FIG. 2B (through 24 hour timepoint), dermatome sectioning of the porcine ear was conducted to sample membranes of varying thickness that both capture the complete epidermis and a varying thickness of the dermis. Dermatome sectioning completed at 200 μm, 300 μm, and 400 μm to provide membranes of a varying total thickness.
As porcine tissue varies with regard to stratum corneum and epidermal thickness as a function of sampling location, multiple sampling locations have been selected for comparison. Dermatome sectioning of multiple porcine tissue samples at a constant thickness. Dermatome sectioning completed at 400 μm. Tissue types evaluated included porcine ear, shoulder, rump, and belly locations
Referring to FIG. 3A (through 400 minutes) and FIG. 3B (through 1500 minutes), the average amount of ondansetron permeated (in ug) is measured as a function of time. The permeation is measured through varying intact porcine ear tissue types at constant thickness (400 um total thickness). […] Given the comparably low standard deviation and the lack of ondansetron detected in the receiver media at t=0 minutes compared to other tissue types, this tissue type has been selected for continued ex-vivo permeation method development.

The nature of data set [7]: Stability of topical gel formulations (assay and degradant generation at 25° C./60% RH and 40° C./75% RH). The class given is physicochemical. Particulars: Formulation 1, 5% w/w API; accelerated conditions 40° C./75% RH. As for the experimental part: An exemplary formulation is provided below.
Multiple dipivefrin gel formulations were evaluated. Formulations 1-3: API loading ranging from 2.5-10% w/w. Formulation 4: Reduced ethyl alcohol (50%) of original loading. Formulation 5: Reduced diethylene glycol monoethyl ether (50%) of original loading. Formulation 6: Reduced propylene glycol (50%) of original loading.
The stability of the topical formulation was tested in two assays. Formulation 1 was evaluated with API loading of 5% w/w. Assay trends are directed downward under accelerated conditions (40° C./75% RH)
Stability trends for a claimed topical formulation (AQEP-09) was evaluated by measuring degradant generation. Formulation 1 was tested with API loading of 5% (% w/w).
The following formulations are exemplary.

Where [8] appears, read: tissue thickness 200 μm, donor cell empty.
Setting [9] is: tissue thickness 400 μm, donor cell filled.

`C[C@@H]1C[C@H]2[C@@H]3CCC4=CC(=O)C=C[C@]4(C)[C@@]3(F)[C@@H](O)C[C@]2(C)[C@@]1(O)C(=O)CO` [Dexamethasone]: the “% inactivation relative to vehicle” value in data set [1] (200 nM) is 22%; in data set [1] (1 μM), 19%.
Regarding `CNCC(O)c1ccc(OC(=O)C(C)(C)C)c(OC(=O)C(C)(C)C)c1` (centres unmarked) [Dipivefrin HCl], the “ex vivo permeation through porcine ear tissue” value in data set [2] is reported as “Significant permeation”.
As to `NC[C@H](O)c1ccc(O)c(O)c1` [norepinephrine], in data set [3], the IL-10 secretion result is “inducing rapid IL-10 secretion” and the TNFα entry is reported as “potently suppresses”.
As for `CNC[C@H](O)c1ccc(O)c(O)c1` [Epinephrine], in data set [1] (5 doses, 6 donors (donor 1 removed)), the “CD25+CD69+ NK cells compared to vehicle” value was “consistent reduction”. Besides, the results for the “% inactivation relative to vehicle” value in data set [1] (500 nM), in data set [1] (1000 nM) and in data set [1] (2500 nM) were 65%, 61% and 51%, respectively. Moreover, in data set [1] (range of concentrations, exceeding IC50 at 70, 140 and 280 nM), the “suppression of activation of NK cells, Epinephrine and Dipivefrin combined for analysis” value is recorded as “effective suppression”. Also, in data set [4] (Sinclair Nanopig, pig, topical or ocular), the “wounded to intact skin ratio for Cmax, epinephrine plasma” value amounted to 3.90. Further, in data set [4], the “PK parameters in plasma, intact skin versus abraded skin” value was “no significant difference”. The “serum concentrations of IL-10” value in data set [5] (humans) is recorded as “increases serum concentrations”. For the same molecule, the “serum concentrations of IL-1b” value in data set [5] (septic patients following treatment) was “decreased serum concentrations of IL-1b”.
With `Cc1nccn1CC1CCc2c(c3ccccc3n2C)C1=O` (centres unmarked) [Ondansetron], in data set [6] (setting [8]), the “Amount Ondansetron Permeated, 6 hours” value is reported as 21.2 (±2.5) μg and the “Amount Ondansetron Permeated, 24 hours” value is 542.4 (±74.3) μg. Besides, in data set [6] (setting [9]), the “Amount Ondansetron Permeated, 6 hours” value is 5.7 (±3.9) μg and the “Amount Ondansetron Permeated, 24 hours” value is 43.8 (±19.4) μg.
As for `CNCC(O)c1ccc(OC(=O)C(C)C)c(OC(=O)C(C)C)c1` (centres unmarked) [AQEP-09, Dibutepinephrine], the “degradant formation trends (epinephrine, PD-15, RRT 1.80)” value in data set [7] is on record as “directed upward”.
Turning to `C[C@]12CCC(=O)C=C1CC[C@@H]1[C@@H]2[C@@H](O)C[C@@]2(C)[C@H]1CC[C@]2(O)C(=O)CO` [Cortisol], the “% inactivation relative to vehicle” value in data set [1] (200 nM) turned out to be 39%.

(Values after patent US20250281392A1, “TOPICAL DELIVERY OF EPINEPHRINE AND PRODRUG COMPOSITIONS” (Aquestive Therapeutics, Inc., priority 2024, published 2025).)
